Experimental data published in patent US10239887B2, “Positive allosteric modulators of the muscarinic acetylcholine receptor M4” (Vanderbilt University, priority 2016, dated 2019).
Counter-ions that a name gives are not always drawn. Like-named read-outs stand apart in the source and are kept apart here.

Molecular target: T1, human mAChR M4 (Homo sapiens, UniProt P08173)
T1 sequence (P08173 1-479): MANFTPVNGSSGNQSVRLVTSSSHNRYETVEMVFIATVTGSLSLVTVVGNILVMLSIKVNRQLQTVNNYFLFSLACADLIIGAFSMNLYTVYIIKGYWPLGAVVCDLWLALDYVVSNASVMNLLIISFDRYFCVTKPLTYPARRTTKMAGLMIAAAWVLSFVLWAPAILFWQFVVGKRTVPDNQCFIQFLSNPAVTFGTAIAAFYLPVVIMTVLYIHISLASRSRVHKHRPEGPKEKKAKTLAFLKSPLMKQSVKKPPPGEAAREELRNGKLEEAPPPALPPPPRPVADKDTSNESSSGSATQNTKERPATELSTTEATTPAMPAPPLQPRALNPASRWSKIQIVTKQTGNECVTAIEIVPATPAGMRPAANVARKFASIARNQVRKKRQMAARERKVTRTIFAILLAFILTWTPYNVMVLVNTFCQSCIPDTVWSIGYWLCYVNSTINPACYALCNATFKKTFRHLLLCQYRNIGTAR
Assay: mAChR M4 cell-based functional assay (calcium flux), human M4

[1] = Human M4 EC50 (nM), Table 10, calcium flux, PAM activity with EC20 acetylcholine
[2] = Table 10, % ACh maximum at 30 μM
[3] = Table 11, % ACh maximum at 30 μM
[4] = Human M4 EC50, CHO-K1 hM4-Gqi5 cells, calcium flux, increase in EC20 acetylcholine response
[5] = Human M4 EC50 (nM), Table 11, calcium flux, PAM activity with EC20 acetylcholine
[6] = Human M4, % ACh maximum at 30 μM

EC50 [1] [nM]	Emax [2] [%]	Emax [3] [%]	Compound	also measured
		59.4	CC(=O)OCc1nnc2sc3c(NCc4ccc(C(C)(C)O)cc4)ncnc3c2c1C [Compound 376, [8-[[4-(1-hydroxy-1-methyl-ethyl)phenyl]methylamino]-4-methyl-pyrimido[4′,5′:4,5]thieno[2,3-c]pyridazin-3-yl]methyl acetate]	
862	58.2		Cc1nnc2oc3c(NCc4ccc(C5(O)CCC5)cc4)ncnc3c2c1C [Compound 298, 1-[4-[[(3,4-dimethylpyrimido [4′,5′:4,5]furo[2,3-c]pyridazin-8-yl)amino]methyl]phenyl]cyclobutanol]	
		71.1	Cc1cc(C(C)(C)O)ccc1CNc1ncnc2c1sc1nnc(C)c(C)c12 [Compound 335, 2-[4-[[(3,4-dimethylpyrimido [4′,5′:4,5]thieno[2,3-c]pyridazin-8-yl)amino]methyl]-3-methyl-phenyl]propan-2-ol]	
		65.7	Cc1nnc2sc3c(N4CC(COc5ccnc(Cl)c5)C4)ncnc3c2c1C [Compound 348, 8-[3-[(2-choro-4-pyridyl)oxymethyl]azetidin-1-yl]-3,4-dimethyl-pyrimido [4′,5′:4,5]thieno[2,3-c] pyridazine dihydrochloride]	EC50 [5]: 1710 nM
	97.3		Cc1c(Cl)nnc2sc3c(NCc4ccc(C(C)(C)O)cc4)ncnc3c12 [Compound 213]	
		64.9	Cc1nnc2sc3c(NCc4ccc(-c5nccs5)cc4)ncnc3c2c1C [Compound 326, 3,4-dimethyl-N-[(4-thiazol-2-ylphenyl)methyl]pyrimido[4′,5′:4,5] thieno[2,3-c]pyridazin-8-amine]	EC50 [5]: 1070 nM
		74.9	Cc1nnc2sc3c(NC4CN(c5ncc(Cl)cc5F)C4)ncnc3c2c1C [Compound 315, N-[1-(5-chloro-3-fluoro-2-pyridyl)azetidin-3-yl]-3,4-dimethyl-pyrimido[4′,5′:4,5]thieno [2,3-c]pyridazin-8-amine]	EC50 [5]: 659 nM
		72.2	CCn1nccc1-c1ccc(CNc2ncnc3c2sc2nnc(C)c(C)c23)cc1 [Compound 343, N-[[4-(2-ethylpyrazol-3-yl)phenyl]methyl]-3,4-dimethyl-pyrimido [4′,5′:4,5]thieno[2,3-c] pyridazin-8-amine]	EC50 [5]: 850 nM
		76.9	Cc1nnc2sc3c(N4CC[C@@H](Oc5ccnc(Cl)c5)C4)ncnc3c2c1C [Compound 336, 8-[(3R)-3-[(2-chloro-4-pyridyl)oxy]pyrrolidin-1-yl]-3,4-dimethyl-pyrimido [4′,5′:4,5]thieno[2,3-c] pyridazine]	EC50 [5]: 105 nM

Further lines, the compound ahead of its results:

Compound	EC50 [1] [nM]	Emax [2] [%]	Emax [3] [%]	also measured
CCC(O)(CC)c1ccc(CNc2ncnc3c2sc2nnc(C)c(C)c23)cc1 [Compound 144, 3-[4-[[(3,4-dimethylpyrimido [4′,5′:4,5]thieno[2,3-c]pyridazin-8-yl)amino]methyl]phenyl]pentan-3-ol]	986	78.3		
Cc1nnc2sc3c(NCc4ccc(C(C)(O)CO)cc4)ncnc3c2c1C (stereo not shown) [Compound 373, 2-[4-[[(3,4-dimethylpyrimido[4′,5′:4,5]thieno[2,3-c]pyridazin-8-yl)amino]methyl]phenyl] propane-1,2-diol]			98	EC50: 69.2 nM
Cc1cc(C)c2c(n1)oc1c(NC3CCC3)ncnc12 [Compound 55, N-Cyclobutyl-7,9-dimethyl-pyrido[3′,2′:4,5]furo[3,2-d]pyrimidin-4-amine hydrochloride]				Emax: 44.2%; EC50 [4]: 1590 nM
CCCCCC(=O)N1CC2(CC(Nc3ncnc4c3sc3nnc(C)c(C)c34)C2)C1 [Compound 170, 1-[6-[(3,4-dimethylpyrimido [4′,5′:4,5]thieno[2,3-c]pyridazin-8-yl)amino]-2-azaspiro[3.3]heptan-2-yl]hexan-1-one; 2,2,2-trifluoroacetate acid]	1260	41		
Cc1nnc2sc3c(NCc4ccc(S(F)(F)(F)(F)F)cc4)ncnc3c2c1C [Compound 92, 3,4-dimethyl-N-[[4-(pentafluoro-λ6-sulfanyl)phenyl]methyl]pyrimido [4′,5′:4,5]thieno[2,3-c] pyridazin-8-amine]	5270	67.3		
COc1c(F)cc(CNc2ncnc3c2sc2nnc(C)c(C)c23)cc1F [Compound 136, N-[(3,5-difluoro-4-methoxy-phenyl)methyl]-3,4-dimethyl-pyrimido [4′,5′:4,5]thieno[2,3-c] pyridazin-8-amine]	388	96.8		
Cc1nnc2oc3c(NC4CCCC4)ncnc3c2c1C [Compound 70, N-cyclopentyl-3,4-dimethyl-pyrimido [4′,5′:4,5]furo[2,3-c]pyridazin-8-amine]				Emax [6]: 45.9%; EC50 [4]: 818 nM
Cc1nnc2sc3c(NCc4ccc(C(=O)NC5CC(F)(F)C5)cc4)ncnc3c2c1C [Compound 152, N-(3,3-difluorocyclobutyl)-4-[[(3,4-dimethylpyrimido [4′,5′:4,5]thieno[2,3-c]pyridazin-8-yl)amino]methyl]benzamide]	59.2	86.9		
Cc1nnc2sc3c(NCc4ccc(-c5ccccn5)cc4)ncnc3c2c1C [Compound 109, 3,4-dimethyl-N-[[4-(2-pyridyl)phenyl]methyl] pyrimido[4′,5′:4,5]thieno [2,3-c]pyridazin-8-amine hydrochloride]	748	79.2		
Cc1nnc2sc3c(NC4CNC4)ncnc3c2c1C [Compound 88, N-(azetidin-3-yl)-3,4-dimethyl-pyrimido [4′,5′:4,5]thieno[2,3-c] pyridazin-8-amine dihydrochloride]	1190	73.7		
COc1ccc(CNc2ncnc3c2sc2nnc(C)c(C)c23)cc1F [Compound 78, N-(3-fluoro-4-methoxybenzyl)-3,4-dimethylpyrimido [4′,5′:4,5]thieno[2,3-c] pyridazin-8-amine]		71.6		
Cc1nnc2sc3c(N4CCC(C(=O)Nc5ccccn5)C4)ncnc3c2c1C (stereo not shown) [Compound 174, 1-(3,4-dimethylpyrimido [4′,5′:4,5]thieno[2,3-c]pyridazin-8-yl)-N-(2-pyridyl)pyrrolidine-3-carboxamide]	748	31		
Cc1nnc2sc3c(NCc4ccc(N5CCN(C)CC5)cc4)ncnc3c2c1C [Compound 111, 3,4-dimethyl-N-[[4-(4-methylpiperazin-1-yl)phenyl]methyl] pyrimido[4′,5′:4,5] thieno[2,3-c] pyridazin-8-amine hydrochloride]	126	70.5		
Cc1cc(C)c2c(n1)sc1c(NCc3ccc(OC(F)F)nc3)ncnc12 [Compound 203, N-[[6-(difluoromethoxy)-3-pyridyl]methyl]-7.9-dimethyl-pyrido[3′,2′:4,5] thieno[3,2-d]pyrimidin-4-amine]	4010	44.5		
Cc1nnc2oc3c(N4CC5(COC5)C4)ncnc3c2c1C [Compound 73, 3,4-dimethyl-8-(2-oxa-6-azaspiro[3.3]heptan-6-yl)pyrimido[4′,5′:4,5]furo [2,3-c]pyridazine]				Emax [6]: 46.1%; EC50 [4]: 4840 nM
Cc1nnc2sc3c(NC4CN(c5cnc(C6CC6)cn5)C4)ncnc3c2c1C [Compound 86, N-[1-(5-cyclopropylpyrazin-2-yl)azetidin-3-yl]-3,4-dimethyl-pyrimido [4′,5′:4,5]thieno[2,3-c] pyridazin-8-amine]	60.4	69		
